The experiment has as its system P388 leukemia ip, CD2F1 mice, survival T/C. The experiment is described as follows: NCI In Vivo Anticancer Drug Screen. Data for tumor model P388 Leukemia (intraperitoneal) in CD2F1 (CDF1) mice. The following applies: endpoint: median survival time, higher = longer survival. In short, it runs like this: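 Mice carrying the transplanted tumor received test compound or vehicle. Survival was recorded in each group, and the value is the treated-group measurement divided by that of the vehicle-treated control group.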

Setting [1] is: dose: 60.0 mg/kg/injection, schedule: Q01DX005 (ip), vehicle: Klucel (hydroxypropylcellulose) (HPC).
The mark [2] stands for this setting: dose: 120.0 mg/kg/injection, schedule: Q01DX005 (ip), vehicle: Klucel (hydroxypropylcellulose) (HPC).
Setting [3] is: dose: 240.0 mg/kg/injection, schedule: Q01DX005 (ip), vehicle: Klucel (hydroxypropylcellulose) (HPC).
[4] abbreviates: dose: 60.0 mg/kg/injection, schedule: Q01DX005 (ip), vehicle: saline with Tween-80.
The mark [5] stands for this setting: dose: 120.0 mg/kg/injection, schedule: Q01DX005 (ip), vehicle: saline with Tween-80.
[6] abbreviates: dose: 240.0 mg/kg/injection, schedule: Q01DX005 (ip), vehicle: saline with Tween-80.
[7] abbreviates: dose: 100.0 mg/kg/injection, schedule: Q04DX003 (ip), vehicle: Klucel (hydroxypropylcellulose) (HPC).
[8] abbreviates: dose: 200.0 mg/kg/injection, schedule: Q04DX003 (ip), vehicle: Klucel (hydroxypropylcellulose) (HPC).
Where [9] appears, read: dose: 400.0 mg/kg/injection, schedule: Q04DX003 (ip), vehicle: Klucel (hydroxypropylcellulose) (HPC).
Setting [10] is: dose: 25.0 mg/kg/injection, schedule: Q01DX009 (ip), vehicle: other.
[11] abbreviates: dose: 12.5 mg/kg/injection, schedule: Q01DX009 (ip), vehicle: saline with Tween-80.
Setting [12] is: dose: 25.0 mg/kg/injection, schedule: Q01DX009 (ip), vehicle: saline with Tween-80.
Setting [13] is: dose: 50.0 mg/kg/injection, schedule: Q01DX009 (ip), vehicle: saline with Tween-80.

Values joined by “and” are separate entries in the source; they are usually repeats but may differ in a detail not shown here. Equal values may be shown once. Inconclusive results and toxic doses are left out.

Take `CCc1ccc2c(c1)C(=O)c1c(c(-c3ccccc3)c3ccccc3c1-c1ccccc1)C2=O`: the T/C (dose: 1.5 mg/kg/injection, schedule: Q01DX005 (ip), vehicle: saline with Tween-80) was 98 % of control; the T/C (dose: 3.0 mg/kg/injection, schedule: Q01DX005 (ip), vehicle: saline with Tween-80) is 95 % of control; the T/C (dose: 6.0 mg/kg/injection, schedule: Q01DX005 (ip), vehicle: saline with Tween-80) is 90 % of control; the T/C (dose: 100.0 mg/kg/injection, schedule: Q01DX005 (ip), vehicle: saline with Tween-80) is 92 % of control; the T/C (dose: 200.0 mg/kg/injection, schedule: Q01DX005 (ip), vehicle: saline with Tween-80) was 92 % of control.
Regarding `COC(=O)C1=C/N(C)CCC/C(C(N)=O)=C\1`, the T/C (dose: 50.0 mg/kg/injection, schedule: Q01DX005 (ip), vehicle: Klucel (hydroxypropylcellulose) (HPC)) is 89 % of control; the T/C (dose: 100.0 mg/kg/injection, schedule: Q01DX005 (ip), vehicle: Klucel (hydroxypropylcellulose) (HPC)) is 102 % of control; the T/C (dose: 200.0 mg/kg/injection, schedule: Q01DX005 (ip), vehicle: Klucel (hydroxypropylcellulose) (HPC)) is 94 % of control.
For `COC(=O)CCC#N`, the T/C is 97 % of control (dose: 100.0 mg/kg/injection, schedule: Q01DX009 (ip), vehicle: saline); 109 % of control (dose: 200.0 mg/kg/injection, schedule: Q01DX009 (ip), vehicle: saline); 107 % of control (dose: 400.0 mg/kg/injection, schedule: Q01DX009 (ip), vehicle: saline).
Regarding `CSCCC(NC=O)C(=O)O` (centres undefined), the T/C runs as follows: (dose: 3.12 mg/kg/injection, schedule: Q01DX009 (ip), vehicle: saline) 88 % of control; (dose: 6.25 mg/kg/injection, schedule: Q01DX009 (ip), vehicle: saline) 91 % of control; (dose: 12.5 mg/kg/injection, schedule: Q01DX009 (ip), vehicle: saline) 87 % of control; (dose: 25.0 mg/kg/injection, schedule: Q01DX009 (ip), vehicle: saline) 92 % of control; (dose: 50.0 mg/kg/injection, schedule: Q01DX005 (ip), vehicle: saline) 98 % of control; (dose: 100.0 mg/kg/injection, schedule: Q01DX005 (ip), vehicle: saline) 98 % of control. Moreover, the T/C (dose: 200.0 mg/kg/injection, schedule: Q01DX005 (ip), vehicle: saline) is 98 % of control.
In the case of `CNC(=O)OCCC(OC(=O)NC)C1CCC2C3CCC4CC(OC(=O)c5ccccc5)CCC4(C)C3CCC12C` (centres undefined), the T/C is 107 % of control under setting [1], 98 % of control under setting [2] and 93 % of control under setting [3].
On to `O=c1cc(-c2ccccc2)nc2cc(-c3ccco3)[nH]n12`, for which the T/C reads like this: under setting [4], 102 % of control; under setting [5], 107 % of control; under setting [6], 111 % of control.
Regarding `N#CSc1ccc2nc(N)sc2c1`, the T/C is 111 % of control (dose: 6.25 mg/kg/injection, schedule: Q01DX009 (ip), vehicle: Klucel (hydroxypropylcellulose) (HPC)); 111 % of control (dose: 12.5 mg/kg/injection, schedule: Q01DX009 (ip), vehicle: Klucel (hydroxypropylcellulose) (HPC)); 104 % of control (dose: 25.0 mg/kg/injection, schedule: Q01DX009 (ip), vehicle: Klucel (hydroxypropylcellulose) (HPC)).
On to `S=C1N(c2ccccc2)CCN1c1ccccc1`, for which the T/C is, setting by setting: under setting [1], 101 % of control; under setting [2], 100 % of control; under setting [3], 94 % of control.
As to `Nc1ncnc2c1c(-c1ccccc1)cn2-c1ccc(I)cc1`, the T/C reads like this: under setting [4], 103 % of control; under setting [5], 100 % of control; under setting [6], 96 % of control.
Take `CN(CCCc1nc2ccccc2[nH]1)N=O`: the T/C is, setting by setting: under setting [7], 100 % of control; under setting [8], 101 % of control; under setting [9], 100 % of control.
With `O=C(O)C1SCSC1C(=O)O` (centres undefined), the T/C reads like this: under setting [10], 94 % of control; (dose: 50.0 mg/kg/injection, schedule: Q01DX009 (ip), vehicle: other) 100 % of control; (dose: 100.0 mg/kg/injection, schedule: Q01DX009 (ip), vehicle: other) 90 % of control; (dose: 200.0 mg/kg/injection, schedule: Q01DX009 (ip), vehicle: other) 98 % of control.
As to `O=C(O)CC1SC(c2ccccc2Cl)N(/N=C/c2ccccc2Cl)C1=O` (centres undefined), the T/C was 102 % of control under setting [11]; 98 % of control under setting [12]; 99 % of control and 87 % of control under setting [13].
Take `O=[N+]([O-])c1cc2[nH]cnc2c([N+](=O)[O-])c1NCCO`: the T/C was 110 % of control under setting [13]; 108 % of control (dose: 100.0 mg/kg/injection, schedule: Q01DX009 (ip), vehicle: saline with Tween-80); 94 % of control (dose: 200.0 mg/kg/injection, schedule: Q01DX009 (ip), vehicle: saline with Tween-80).
Take `CC(C)CCC1=CC(=O)C(CCC(C)C)=CC1=O`: the T/C is, setting by setting: (dose: 3.12 mg/kg/injection, schedule: Q01DX009 (ip), vehicle: saline with Tween-80) 104 % of control; (dose: 6.25 mg/kg/injection, schedule: Q01DX009 (ip), vehicle: saline with Tween-80) 104 % of control; under setting [11], 106 % of control; under setting [12], 101 % of control.
For the compound `O=[N+]([O-])c1ccccc1C=Nc1ccc2nc(SCc3ccccc3)sc2c1`, the T/C was 100 % of control under setting [7], 95 % of control under setting [8] and 89 % of control under setting [9].
In the case of `C=[CH][Sn]([Cl])([Cl])[CH]=C.COc1ccc(P(=O)(c2ccc(OC)cc2)c2ccc(OC)cc2)cc1`, the T/C is, setting by setting: (dose: 25.0 mg/kg/injection, schedule: Q04DX003 (ip), vehicle: saline) 100 % of control and 113 % of control; (dose: 50.0 mg/kg/injection, schedule: Q04DX003 (ip), vehicle: saline) 100 % of control and 111 % of control; (dose: 100.0 mg/kg/injection, schedule: Q04DX003 (ip), vehicle: saline) 100 % of control and 115 % of control and 120 % of control; (dose: 200.0 mg/kg/injection, schedule: Q04DX003 (ip), vehicle: saline) 100 % of control and 111 % of control; (dose: 400.0 mg/kg/injection, schedule: Q04DX003 (ip), vehicle: saline) 117 % of control.
Regarding `COc1cc2c(c(O)c1OC)-c1c(cc(OC)c(OC)c1OC)CC(C)C(C)C2` (centres undefined), the T/C (dose: 11.25 mg/kg/injection, schedule: Q01DX009 (ip), vehicle: saline + alcohol) was 100 % of control and 95 % of control; the T/C (dose: 11.3 mg/kg/injection, schedule: Q01DX009 (ip), vehicle: saline + alcohol) was 106 % of control; the T/C (dose: 22.5 mg/kg/injection, schedule: Q01DX009 (ip), vehicle: saline + alcohol) is 101 % of control and 115 % of control and 96 % of control; the T/C (dose: 45.0 mg/kg/injection, schedule: Q01DX009 (ip), vehicle: saline + alcohol) was 106 % of control and 121 % of control and 97 % of control; the T/C (dose: 90.0 mg/kg/injection, schedule: Q01DX009 (ip), vehicle: saline + alcohol) was 113 % of control and 121 % of control and 92 % of control; the T/C (dose: 180.0 mg/kg/injection, schedule: Q01DX009 (ip), vehicle: saline + alcohol) is 96 % of control.
For the compound `NCCNc1ccc(NCCN)c2c1C(=O)c1ccccc1C2=O`, the T/C reads like this: (dose: 0.78 mg/kg/injection, schedule: Q01DX009 (ip), vehicle: distilled water + alcohol) 150 % of control; (dose: 2.0 mg/kg/injection, schedule: Q01DX009 (ip), vehicle: acid diluted with saline) 185 % of control; (dose: 3.13 mg/kg/injection, schedule: Q01DX009 (ip), vehicle: distilled water + alcohol) 107 % of control; (dose: 4.0 mg/kg/injection, schedule: Q01DX009 (ip), vehicle: acid diluted with saline) 194 % of control; (dose: 6.25 mg/kg/injection, schedule: Q01DX009 (ip), vehicle: distilled water + alcohol) 159 % of control; (dose: 8.0 mg/kg/injection, schedule: Q01DX009 (ip), vehicle: acid diluted with saline) 203 % of control. For the same compound, the T/C runs as follows: (dose: 12.5 mg/kg/injection, schedule: Q01DX009 (ip), vehicle: distilled water + alcohol) 174 % of control; (dose: 16.0 mg/kg/injection, schedule: Q01DX009 (ip), vehicle: acid diluted with saline) 243 % of control; (dose: 25.0 mg/kg/injection, schedule: Q01DX009 (ip), vehicle: distilled water + alcohol) 215 % of control; under setting [10], 158 % of control.

These data come from PubChem BioAssay AID330 (DTP/NCI, 2004).
